Reference: publication PMC10690365, “Improved catalytic performance and molecular insight for lipoxygenase from Enterovibrio norvegicus via directed evolution” (Frontiers in Bioengineering and Biotechnology, 2023)
Positions count from the first letter of the chain named.

Columns and labels:
[1] = target: T1, EnLOX (wild-type, WT); lipoxygenase from Enterovibrio norvegicus (Enterovibrio norvegicus, UniProt A0A1I5T4S6, D95E/T99A/A121H/S142N/N444W/S613G, form not given); test: absorbance at […] nm (hydroperoxide formation), Michaelis-Menten fit; assay type: biochemical; conditions: 20 mM Tris-HCl pH 8.0, 50 °C; substrate range printed as 10 to 300 mM (unit doubtful against the Km); mutant EAHNWG (F-12E); printed nucleotide changes do not fully match the amino acid positions
T1 construct: primer-encoded N-terminus MHRKKT
T1 sequence (A0A1I5T4S6 1-726 D95E/T99A/A121H/S142N/N444W/S613G): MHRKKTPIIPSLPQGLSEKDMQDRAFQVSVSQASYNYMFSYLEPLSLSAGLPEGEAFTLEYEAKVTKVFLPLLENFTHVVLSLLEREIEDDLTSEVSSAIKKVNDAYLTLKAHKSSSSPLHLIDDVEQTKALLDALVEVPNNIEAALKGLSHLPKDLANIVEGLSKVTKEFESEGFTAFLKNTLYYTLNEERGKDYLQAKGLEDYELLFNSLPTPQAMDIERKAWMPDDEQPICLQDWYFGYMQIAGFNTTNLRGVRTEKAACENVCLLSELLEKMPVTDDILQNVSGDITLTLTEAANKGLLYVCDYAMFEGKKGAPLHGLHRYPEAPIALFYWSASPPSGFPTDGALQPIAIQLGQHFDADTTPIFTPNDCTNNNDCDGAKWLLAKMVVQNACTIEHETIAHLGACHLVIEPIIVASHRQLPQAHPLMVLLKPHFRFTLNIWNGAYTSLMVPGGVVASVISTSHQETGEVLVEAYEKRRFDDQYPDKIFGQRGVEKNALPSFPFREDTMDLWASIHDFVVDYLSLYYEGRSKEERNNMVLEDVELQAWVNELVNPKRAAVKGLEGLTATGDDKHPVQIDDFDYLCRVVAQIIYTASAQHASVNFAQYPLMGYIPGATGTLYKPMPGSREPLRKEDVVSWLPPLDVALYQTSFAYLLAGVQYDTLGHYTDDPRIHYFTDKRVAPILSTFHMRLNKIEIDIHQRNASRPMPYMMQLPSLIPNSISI

[2] = target: T2, EnLOX (wild-type, WT); lipoxygenase from Enterovibrio norvegicus (Enterovibrio norvegicus, UniProt A0A1I5T4S6); test: as above; assay type: biochemical; conditions: 20 mM Tris-HCl pH 8.0, 50 °C; substrate range printed as 10 to 300 mM (unit doubtful against the Km)
T2 construct: primer-encoded N-terminus MHRKKT
T2 sequence (A0A1I5T4S6 1-726): T1 sequence (A0A1I5T4S6 1-726 D95E/T99A/A121H/S142N/N444W/S613G) with E95D, A99T, H121A, N142S, W444N, G613S

- Km [1]: 2.36 ± 0.14 µM
- Km [2]: 3.49 ± 0.21 µM
Compound: CCCCC/C=C\C/C=C\CCCCCCCC(=O)O [linoleic acid]
